Values joined by “and” are separate entries in the source; they are usually repeats but may differ in a detail not shown here. Equal values may be shown once.

The target in this experiment is Induced myeloid leukemia cell differentiation protein Mcl-1 (Homo sapiens, UniProt Q07820). Briefly: Terbium labeled Myeloid Cell Leukemia 1 (Mcl-1) homogeneous time-resolved fluorescence (HTRF) binding assay. The text has this:
This assay evaluated inhibition of the BH3 domain: Mcl-1 interaction by measuring the displacement of Cy5-labeled BIM BH3 peptide (H2N (C/Cy5Mal) WIAQELRRIGDEFN-OH) in the HTRF assay format.
(In TR-FRET formats the signal depends on donor and acceptor labels being close together.)

Induced myeloid leukemia cell differentiation protein Mcl-1, sequence (Q07820 whole entry, the tested form may be a part): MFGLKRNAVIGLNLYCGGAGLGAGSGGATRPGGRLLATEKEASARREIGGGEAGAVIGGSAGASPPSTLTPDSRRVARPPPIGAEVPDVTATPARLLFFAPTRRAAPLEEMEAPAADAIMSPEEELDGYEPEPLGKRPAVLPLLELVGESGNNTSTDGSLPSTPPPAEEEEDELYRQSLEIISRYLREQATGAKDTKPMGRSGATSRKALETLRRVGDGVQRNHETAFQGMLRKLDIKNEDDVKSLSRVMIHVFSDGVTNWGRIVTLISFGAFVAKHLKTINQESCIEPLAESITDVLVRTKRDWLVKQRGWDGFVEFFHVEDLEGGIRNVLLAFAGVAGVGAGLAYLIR

Consider `Cc1nn(C)c(C)c1-c1c(Cl)ccc2c3c(C(=O)O)n(c12)CCCSCc1cc(n(C)n1)CSc1cc(c2ccccc2c1)OCCC3` [US20240190893, Compound 19], for which the Ki (in general, the dissociation constant of the complex between target and ligand, obtained from inhibition or displacement) is 1.44 nM and 0.249 nM.
